Legend:
Src = Src (Homo sapiens, UniProt P12931); conditions: n = 3
Experimental: (§1) To characterize the binding of SH3-phages to recombinant proteins, phage-ELISA analyses were performed. First, 1 µg of recombinant protein per well was immobilized on 96-well MaxiSorp plates (Nunc) over night. After washing thrice with PBS/T (PBS with 0.1 % Tween-20) and blocking with 5 % BSA in PBS, dilution-series of the respective phage-supernatants in 2×YTAmp,Kana were added and incubated for 1 h. After washing 10 times with PBS/T, an HRP-coupled anti-M13-antibody (GE Healthcare, 27-9421-01) diluted 1 : 5000 in blocking solution was added for 1 h. After washing again 10 times, TMB substrate solution was added, the reaction finally stopped by addition of 0.5 M H2SO4, and the result read out by measuring OD450.
(§2) First, we aimed at quantifying the binding affinities of the SH3-displaying phages to Sam68. To this end, we established a phage-ELISA procedure to separately analyse phage supernatants of the ten individual SH3-phages. In brief, His-Sam68 was coated to a 96-well plate, blocked and incubated with a dilution series of phage supernatants. Finally, bound phages were detected using an anti-M13-specific HRP-coupled antibody. As depicted in Fig. 1A, binding curves were obtained that are typical for a simple ligand-receptor relationship as is expected for an SH3-domain-PxxP-interaction showing no allosteric effects. Kd-values can not be deduced from these curves in the first instance, because the concentration of SH3 domains in the supernatants is unknown due to each phage particle presenting many copies on its surface. […]
(§3) Figure 1 Analysis of Sam68-binding SH3 domains in vitro. […] The amounts of bound phages were measured using a horseradish peroxidase-conjugated anti-M13-specific antibody with TMB-substrate detection at 450 nm (mean of three independent experiments, normalized to maximum OD-values). […] Bound proteins were eluted and Sam68 was detected by western blot analysis. […]

Hck = Hck (Homo sapiens, UniProt P08631); conditions: n = 3
Hck, sequence (P08631 78-138): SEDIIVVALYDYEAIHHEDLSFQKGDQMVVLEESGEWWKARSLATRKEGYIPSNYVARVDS
Experimental: as §1, §2, §3

IS2#3 = molecular target: T1, IS2#3 (Homo sapiens, UniProt Q9NZM3); conditions: n = 3
T1 construct: gene ITSN2
T1 sequence (Q9NZM3 981-1039): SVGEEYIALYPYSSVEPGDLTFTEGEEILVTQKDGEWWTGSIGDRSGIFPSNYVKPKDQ
Experimental: as §1, §2, §3

Nck1#2 = Nck1#2 (Homo sapiens, UniProt P16333); conditions: n = 3
Experimental: as §1, with “OD450. […]” for “OD450.”
First, we aimed at quantifying the binding affinities of the SH3-displaying phages to Sam68. […] Finally, bound phages were detected using an anti-M13-specific HRP-coupled antibody. […]
as §3

β-Pix-SH3 = molecular target: T2, β-Pix-SH3 (Homo sapiens, UniProt Q14155); conditions: cited from earlier work
T2 construct: gene ARHGEF7; β-Pix SH3 domain
T2 sequence (Q14155 184-243): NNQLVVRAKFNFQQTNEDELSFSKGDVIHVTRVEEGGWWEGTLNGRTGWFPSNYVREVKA
Excerpt: Remarkably, Kd values calculated for the Sam68-SH3-interactions (considering the aforementioned correction value) lie in the low nanomolar range (cf. Fig. 1B). This is unexpected for SH3 domains, whose affinities are considered to lie in the low micromolar range [2], [51]. However, critical examination of the literature challenges the generality of the latter proposition. […] This can have a significant influence on binding-strength, as illustrated for instance for the Abp1-SH3 domain, comprising a Kd-value of 100 µM to a 14-mer ligand-peptide, and 40 µM after elongation to a 17-mer peptide. Nevertheless, some values obtained for Sam68-SH3 interactions still are one order of magnitude lower than even the best reported in the literature. Likely, this is due to an artifical avidity effect resulting from the use of the SH3-phages. As the SH3 domains bind to more than one of the PxxP-motifs, it is conceivable that one phage-particle docks to two or more PxxP-motifs of an individual Sam68 molecule via multiple SH3 domains. Consequently, even after dissociation of one SH3-PxxP-pair, the phage would still be retained by the protein. Kinetically, this corresponds to a decrease in the off-rate and concomitantly to a decrease in the Kd value. The affinity gain of the interaction is not due to cooperativity, as is evident from the Hill-transformed ELISA data yielding Hill-coefficients α of 1.0. […]

Src-associated in mitosis 68 kDa (KHDRBS1), full-length, N-terminally His-tagged recombinant [Sam68]
Kd (Src): 6 nM
Kd (Hck): 31 nM
Kd (IS2#3): 59 nM
Kd (Nck1#2): 31 nM

Pak2
Kd (β-Pix-SH3): 59 nM

From paper PMC3379994, “Comprehensive Analysis of Interactions between the Src-Associated Protein in Mitosis of 68 kDa and the Human Src-Homology 3 Proteome” (PLoS ONE, 2012)
